In article PMC7871333 (Science translational medicine, 2020):

Columns and labels:
[1] = in vivo
[2] = rats; cited from earlier work

Cn1c(=O)c2c(ncn2C)n(C)c1=O [caffeine]
Caffeine pharmacokinetic parameters sampled in plasma or ISF [1]: not significantly different

CC/N=c1\cc2oc3cc(NCC)c(C)cc3c(-c3ccccc3C(=O)OCC)c-2cc1C [rhodamine 6G]
Concentration in ISF compared to serum [2]: lower than in serum
